Data set [1] concerns Leishmania donovani. Briefly: Antileishmanial activity against Leishmania donovani promastigotes. The class given is functional, organism-based.
Data set [2] has as its system Trypanosoma cruzi. Nature of the data set: Antitrypanosomal activity against Trypanosoma cruzi epimastigotes. In kind it is functional, organism-based.
Data set [3] can be described thus: Selectivity index, ratio of CC50 for African green monkey Vero cells to IC50 for Leishmania donovani promastigotes. The class given is toxicity. To be noted: read-out: Ratio CC50/IC50.
The test system of data set [4] is Leishmania donovani. Briefly: Potency index, ratio of Artemisinin IC50 to test compound IC50 for antileishmanial activity against Leishmania donovani promastigotes. In kind it is functional.
Data set [5] can be described thus: Selectivity index, ratio of CC50 for African green monkey Vero cells to IC50 for Trypanosoma cruzi trypomastigotes. The class given is toxicity. As to conditions: read-out: Ratio CC50/IC50.
Data set [6] has as its system Trypanosoma cruzi. Nature of the data set: Antitrypanosomal activity against Trypanosoma cruzi trypomastigotes. The class given is functional, organism-based.
Another data set has as its system Vero. Briefly: Cytotoxicity against African green monkey Vero cells up to 4.76 ug/ml by neutral red assay. In kind it is cell-based. To be noted: chlorocebus sabaeus, dose <=4.76 µg/ml.
Data set [7] deals with Trypanosoma cruzi. Nature of the data set: Potency index, ratio of artesunate IC50 to test compound IC50 for antitrypanosomal activity against Trypanosoma cruzi trypomastigotes. In kind it is functional.
Data set [8] concerns Trypanosoma cruzi. Nature of the data set: Trypanocidal activity against Trypanosoma cruzi epimastigotes at 100 uM measured after 24 hrs. In kind it is functional.
The test system of data set [9] is Trypanosoma cruzi. Briefly: Potency index, ratio of benznidazole IC50 to test compound IC50 for antitrypanosomal activity against Trypanosoma cruzi trypomastigotes. The class given is functional.
Data set [10] is described as follows: Cytotoxicity against African green monkey Vero cells by neutral red assay. In kind it is cell-based. As to conditions: chlorocebus sabaeus.
Data set [11] is described as follows: Selectivity index, ratio of CC50 for African green monkey Vero cells to IC50 for Trypanosoma cruzi epimastigotes. The class given is toxicity. To be noted: read-out: Ratio CC50/IC50.

On to `CC(=O)CCCC(C)(C)C(=O)/C=C/C(=O)/C=C/c1ccc(C(=O)NCc2ccccc2)cc1`, for which the IC50 is 5.39 µM in the data set with Leishmania donovani [1], over 100 µM in the data set on Trypanosoma cruzi [2] and 10.2 µM with Trypanosoma cruzi [6]. This compound also showed an IC90 with Leishmania donovani [1] of 13.5 µM. The selectivity ratio in [3] is 1.98; in data set [5] it was at least 1.05. In addition, the “Ratio IC50” value in the data set with Leishmania donovani [4] was over 10.
In the data set on Leishmania donovani [1], `COC(=O)c1ccc(/C=C/[C@]23C=C[C@@]4(OO2)C(C)(C)CCC(OC(C)=O)[C@]4(C)O3)cc1` (mixture of isomers) registered an IC50 of 7.01 µM and an IC90 of 15.2 µM. For the same compound, in the data set with Vero, the Activity result is listed as “Non-Toxic”. Further, the selectivity ratio in data set [3] stood at 1.59. The “Ratio IC50” value in the data set with Leishmania donovani [4] is given as over 10.
On to `CC1(C)CCC[C@]2(C)O[C@@]3(/C=C/c4ccc(C(=O)NCc5ccccc5)cc4)C=C[C@@]12OO3` (racemic), for which the IC50 with Leishmania donovani [1] turned out to be 2.47 µM; with Trypanosoma cruzi [2], 2.48 µM; in the data set on Trypanosoma cruzi [6] it was 1.16 µM. Moreover, in the data set on Leishmania donovani [1], the IC90 was 15.7 µM. Also, the “Ratio IC50” value with Trypanosoma cruzi [7] is reported as 10; with Trypanosoma cruzi [9], 13; in the data set with Leishmania donovani [4], over 10. Also, the selectivity ratio in [3] is 4.33; in [5], at least 9.21; in [11], at least 4.3. Besides, the Activity with Trypanosoma cruzi [8] was 100%. Further, in [10], the CC50 is over 10.7 µM.
In the data set on Leishmania donovani [1], `CC1(C)CC[C@H](O)[C@]2(C)O[C@@]3(/C=C/c4ccc(C(=O)NCc5ccccc5)cc4)C=C[C@@]12OO3` (racemic) showed a 50% inhibitory concentration (IC50) of 3.47 µM and an IC90 of 5.42 µM. The selectivity ratio in data set [3] was determined as 2.69. In the data set with Leishmania donovani [4], the “Ratio IC50” value is recorded as over 10. In data set [10], the CC50 is at least 9.33 µM.
As to `CC1(C)CC[C@@H](O)[C@]2(C)O[C@@]3(C)C=C[C@@]12OO3` (racemic), in the data set with Leishmania donovani [1], the IC50 was over 100 µM and the IC90 was over 100 µM.
On to `CC1(C)CC=C[C@]2(C)O[C@@]3(C)C=C[C@@]12OO3` (racemic), for which, in the data set on Leishmania donovani [1], the IC50 is over 100 µM and the IC90 is over 100 µM.
Regarding `CC1(C)CC=C[C@]2(C)O[C@@]3(C)CC[C@@]12OO3` (racemic), in the data set with Leishmania donovani [1], the IC50 is over 100 µM and the IC90 was over 100 µM.
For the compound `CC1(C)CCC(=O)[C@]2(C)O[C@@]3(C)C=C[C@@]12OO3` (racemic), in the data set with Leishmania donovani [1], the IC50 is over 100 µM and the IC90 is over 100 µM.
On to `CC1(C)CC[C@@H](O)[C@]2(C)O[C@@]3(C)CC[C@@]12OO3` (racemic), for which, in the data set with Leishmania donovani [1], the IC50 was over 100 µM and the IC90 was over 100 µM.
On to `CC1(C)CC[C@@H](O)[C@]2(C)O[C@@]3(/C=C/c4ccc(C(=O)NCc5ccccc5)cc4)C=C[C@@]12OO3` (racemic), for which the IC50 was 7.59 µM in the data set with Leishmania donovani [1], 2.66 µM with Trypanosoma cruzi [2] and 0.62 µM in the data set on Trypanosoma cruzi [6]. The compound also registered an IC90 in the data set on Leishmania donovani [1] of 15.2 µM. Besides, the Activity entry with Vero is “Non-Toxic”; in the data set on Trypanosoma cruzi [8], 100%. For the same compound, the “Ratio IC50” value with Trypanosoma cruzi [7] was 20; in the data set on Trypanosoma cruzi [9], 13; with Leishmania donovani [4], over 10. The selectivity ratio is 1.36 in data set [3], at least 16.6 in [5] and at least 3.88 in data set [11].
Take `CC(=O)O[C@H]1CCC(C)(C)[C@@]23C=C[C@@](C)(OO2)O[C@@]13C` (racemic): in the data set on Leishmania donovani [1], the IC50 was over 100 µM and the IC90 was over 100 µM.
As for `CC1(C)CCC[C@]2(C)O[C@@]3(C)C=C[C@@]12OO3` (racemic), in the data set on Leishmania donovani [1], the IC50 was over 100 µM and the IC90 is over 100 µM.
As for `CC1(C)CC[C@H](O)[C@]2(C)O[C@@]3(C)C=C[C@@]12OO3` (racemic), in the data set on Leishmania donovani [1], the IC50 was over 100 µM and the IC90 is over 100 µM.
In the data set on Leishmania donovani [1], `CC(=O)O[C@@H]1CCC(C)(C)[C@@]23CC[C@@](C)(OO2)O[C@@]13C` (racemic) gave an IC50 of over 100 µM and an IC90 of over 100 µM.
In the data set on Leishmania donovani [1], `CC1(C)CCC(=O)[C@]2(C)O[C@@]3(C)CC[C@@]12OO3` (racemic) registered an IC50 of over 100 µM and a concentration for an effect of 90% (IC90) of over 100 µM.
Regarding `COC(=O)c1ccc(/C=C/[C@]23C=C[C@@]4(OO2)C(C)(C)CCC[C@]4(C)O3)cc1` (racemic), the half-inhibitory concentration (IC50) is 8.38 µM in the data set on Leishmania donovani [1], 2.27 µM in the data set on Trypanosoma cruzi [2] and 0.84 µM in the data set on Trypanosoma cruzi [6]. This compound yielded a 90% effect concentration (IC90) in the data set with Leishmania donovani [1] of 18.9 µM. For the same compound, the “Ratio IC50” value in the data set on Trypanosoma cruzi [7] is given as 10; in the data set on Trypanosoma cruzi [9], 13; in the data set with Leishmania donovani [4], over 10. The figures for the selectivity ratio in data set [3], in data set [5] and in data set [11] were 1.54, at least 15.3 and at least 5.56, respectively. The Activity in the data set with Trypanosoma cruzi [8] was found to be 100%. Also, the CC50 in [10] was over 12.8 µM.
In the data set on Leishmania donovani [1], `CC1(C)CC[C@H](O)[C@]2(C)O[C@@]3(C)CC[C@@]12OO3` (racemic) yielded a concentration for half-maximal inhibition (IC50) of over 100 µM and an IC90 of over 100 µM.
In the data set on Leishmania donovani [1], `COC(=O)c1ccc(/C=C/[C@]23C=C[C@@]4(OO2)C(C)(C)CC[C@@H](O)[C@]4(C)O3)cc1` (racemic) registered an IC50 of 5.18 µM and an IC90 of 15.5 µM. Moreover, the selectivity ratio in data set [3] worked out at 2.38. In addition, the “Ratio IC50” value in the data set with Leishmania donovani [4] was over 10. In data set [10], this compound displayed a CC50 of over 11.1 µM.
In the data set on Leishmania donovani [1], `CC(=O)O[C@@H]1CCC(C)(C)[C@@]23C=C[C@@](C)(OO2)O[C@@]13C` (racemic) registered an IC50 of over 100 µM and an IC90 of over 100 µM.
Take `C[C@@H]1[C@H](O)[C@@H](C)/C=C/C=C/C=C/C=C/C=C/C=C/C=C/[C@H](O[C@@H]2O[C@H](C)[C@@H](O)[C@H](N)[C@@H]2O)C[C@@H]2O[C@](O)(C[C@@H](O)C[C@@H](O)[C@H](O)CC[C@@H](O)C[C@@H](O)CC(=O)O[C@H]1C)C[C@H](O)[C@H]2C(=O)O` [AMPHOTERICIN B]: in the data set on Leishmania donovani [1], the midpoint of inhibition, the IC50, lay at 0.19 µM and the 90% effect level (IC90) was put at 0.41 µM.
Take `C[C@@H]1CC[C@H]2[C@@H](C)C(=O)O[C@@H]3O[C@@]4(C)CC[C@@H]1[C@]32OO4` [ARTEMISININ]: the IC50 in the data set with Leishmania donovani [1] was over 100 µM.
In the case of `C[C@H]1[C@H](OC(=O)CCC(=O)O)O[C@@H]2O[C@@]3(C)CC[C@H]4[C@H](C)CC[C@@H]1[C@@]24OO3` [ARTESUNATE], the figures for the half-inhibitory concentration (IC50) in the data set with Leishmania donovani [1], in the data set with Trypanosoma cruzi [2] and in the data set with Trypanosoma cruzi [6] were 12.1 µM, 9.44 µM and 13 µM, respectively.
As for `O=C(Cn1ccnc1[N+](=O)[O-])NCc1ccccc1` [BENZNIDAZOLE], the IC50 was 32.5 µM in the data set on Trypanosoma cruzi [2] and 14.9 µM in the data set on Trypanosoma cruzi [6].
In the data set with Leishmania donovani [1], `N=C(N)c1ccc(OCCCCCOc2ccc(C(=N)N)cc2)cc1` [PENTAMIDINE] returned an IC90 of 5.29 µM.

In general, IC50 refers to the concentration that gives 50% inhibition. As usually defined, the IC90 is the concentration needed for an effect of 90%. Broadly, the CC50 is the concentration that lowers cell viability or growth by half.

The values above are taken from ChEMBL document CHEMBL4725366, “Expanding the scope of synthetic 1,2,4-trioxanes towards Trypanosoma cruzi and Leishmania donovani” (Bioorg Med Chem Lett, 2020).
